Results reported in publication PMC12916490 (Molecular Psychiatry, 2025).

Experiments:
[1] = system: Human; design: method as in ref 48 (PiHKAL: A Chemical Love Story); details: ref 48 (PiHKAL: A Chemical Love Story); cited from earlier work
[2] = target: T1, hDAT (Homo sapiens, UniProt Q01959); test: Radioligand binding, hDAT ([3H]WIN35,428)
T1 construct: expressed in transfected cells; host or cells: HEK 293 cells (membrane preparation)
Description: Binding affinities at human monoamine receptors and transporters were assessed as previously reported. A detailed description of the methodology is provided in the Supplementary information.
(§1) The IC50 values from the radioligand binding assays were determined by nonlinear regression, using three independent concentration-response curves fitted to a one-site model. The Cheng-Prusoff equation was used to calculate Kᵢ values for the competing ligands. EC50 values were determined by applying nonlinear regression to concentration-response curves. Bias factors (β) were calculated based on the relative intrinsic activity approach. More detailed information can be found in the Supplementary information. Mean values for total number of HTR, change in body temperature from pre to post session (Δ°C), and total distance traveled (cm) for each drug dose were compared (p < 0.05) via Welch’s ANOVA with Dunnett’s T3 post test, comparing all doses to respective vehicle controls (0 mg/kg). Welch’s ANOVA with Dunnett’s T3 post test was also used to compare drug concentrations, but the data were compared to DOM in this case. Dose–response relationships for HTR and locomotor activities were plotted using bell-shaped curve fits, while temperature change data were plotted using four-parameter non-linear regression curve fits. The ascending phase of the HTR curve for each drug was used to determine ED50 potency values from four parameter non-linear regression fits. For combined DOM and DOAM administration, the plasma, brain tissue, and brain dialysate drug concentrations were compared using paired t-tests (p < 0.05).
3.1 Assessment of receptor and transporter binding affinities
Membrane preparations were prepared from cells transfected with the respective target. The membrane preparations were then incubated with selective radioligands at concentrations equal to the corresponding Kd and displacement of the ligand by the drugs was measured. The difference between total binding and nonspecific binding (determined in the presence of selective competitors) was defined as specific binding of the radioligand to the target receptor. The following transfected cell lines were used for the binding assays: HEK 293 cells (h5-HT1A, h5-HT2A, h5-HT2B, h5-HT2C, and hD2 receptors, hDAT, hNET, and hSERT), Chinese hamster ovary cells (hα 1A receptor), and Chinese hamster lung cells (hα 2A receptor).
3.1.1 Membrane preparations for receptor and transporter binding
For producing membrane preparations, transfected cells were harvested with trypsin/EDTA, washed with ice-cold phosphate buffered saline, and then pelleted by centrifugation (210 × g for 5 min at 4 °C). The pellets were frozen and stored at -80 °C until use. Frozen pellets were resuspended in 20 m L (receptor binding) or 400 m L (transporter binding) buffer (20 mM HEPES -NaOH, 10 mM EDTA, pH 7.4), and homogenized at 1,100 × g for 20 s (receptor binding) or 560 × g for 15 s (transporter binding); the homogenates were then centrifuged at 48,000 × g for 30 min at 4 °C. For receptor binding assays, the supernatants were discarded and the pellets were resuspended in 20 mL buffer (20 mM HEPES-NaOH, 0.1 mM EDTA, pH 7.4) and homogenized at 1 ,100 × g for 20 s. Centrifugation and discarding of the supernatant were repeated once, and the final pellet was then resuspended in buffer and homogenized.
3.1.2 Serotonin 5-HT1A and 5-HT2A receptor binding
Competitive binding at the h5-HT1A and h5-HT2A receptor was determined using 0.90 nM [ 3H]8-hydroxy-2-(di-n-propylamine)tetralin ([ 3H]8-OH-DPAT; h5-HT1A receptor agonist) and 0.40 nM [3H]ketanserin (h5-HT2 receptor antagonist) as radioligands. […]
binding of the radioligands was defined as difference between total binding (binding buffer alone) and nonspecific binding determined in the presence of 10 μM pindolol (h5-HT1A receptor antagonist) or 10 μM spiperone (h 5-HT2A receptor antagonist).

[3] = system: 5-HT2A receptor; test: 5-HT2A receptor activation bias factors (relative intrinsic activity, 5-HT reference); assay type: cell-based, human; details: 5-HT as reference agonist; positive = preference for numerator pathway
Description: as §1
Bias factors close to 0 imply no bias toward either tested signaling pathway. Positive values indicate a preference for pathway 1, and negative values indicate a preference for pathway 2, relative to the reference agonist 5-HT. […]
the β-arrestin 2 molecule in the NanoBiT system) were seeded at a density of 50,000 cells per well in poly - D-lysine-coated 96-well plates in medium containing 10% dialyzed FBS. The plate was then incubated at […]
The following day, the cells were washed twice with 150 µL HBSS, and 100 µL HBSS was subsequently added to each well. Thereafter, 25 µL of substrate (1 :20 diluted in buffer) was added, and […]
agonist solutions was added, and the signal was monitored for 2 h. Drug dilutions in HBSS were made from 10 mM stock solutions in DMSO , yielding concentration ranges from 10 µM to 10 pM. All concentrations were run in duplicate and included the appropriate solvent controls. Efficacy was normalized to 5 -HT […]
3.2.3 Arachidonic acid release
Arachidonic acid release was assessed as a marker for Gαi/o,12/13 mediated signaling.
NIH/3T3 cells stably expressing the 5 -HT2A receptor were seeded at a density of 75,000 cells per well in a poly-D-lysine-coated 48-well plate. The following day, the cells were labeled with 300 μL [ 3H]arachidonic […]
Thereafter, the cells were washed 3 times for
(10 mM) of test substances were prepared in DMSO. The final dilution series of test substances dissolved […]
Thereafter, the plate was put on ice, and 400 μL incubation supernatant per well was transferred int o scintillation vials containing scintillation fluid (Ultimagold, Perkin Elmer, Schwerzenbach, Switzerland). The remaining supernatant was removed, and the cells were lysed with 1% sodium dodecyl sulfate lysis buffer. The obtained cell lysate was transferred into scintillation vials containing scintillation fluid. Radioactivity was measured on a liquid scintillation counter (Packard 1900 TR Tri-Carb Liquid Scintillation Counter; Packard Instrument Company). Efficacy was normalized to 5-HT activity.
3.2.4 Calculation of bias factors […]
using 5-HT as the reference agonist.
RApathway = EC50, i = EC50, ref×Emax,i […]
Then, the obtained RA values were used to calculate the bias factor (β) for each pathway combination. […]
pathway 1 over pathway 2. Brown-Forsythe and Welch ANOVA analyses were applied to estimate the […]

[4] = hDAT Ki, mean (95% CI), HEK 293 membranes

T1 sequence (Q01959 whole entry): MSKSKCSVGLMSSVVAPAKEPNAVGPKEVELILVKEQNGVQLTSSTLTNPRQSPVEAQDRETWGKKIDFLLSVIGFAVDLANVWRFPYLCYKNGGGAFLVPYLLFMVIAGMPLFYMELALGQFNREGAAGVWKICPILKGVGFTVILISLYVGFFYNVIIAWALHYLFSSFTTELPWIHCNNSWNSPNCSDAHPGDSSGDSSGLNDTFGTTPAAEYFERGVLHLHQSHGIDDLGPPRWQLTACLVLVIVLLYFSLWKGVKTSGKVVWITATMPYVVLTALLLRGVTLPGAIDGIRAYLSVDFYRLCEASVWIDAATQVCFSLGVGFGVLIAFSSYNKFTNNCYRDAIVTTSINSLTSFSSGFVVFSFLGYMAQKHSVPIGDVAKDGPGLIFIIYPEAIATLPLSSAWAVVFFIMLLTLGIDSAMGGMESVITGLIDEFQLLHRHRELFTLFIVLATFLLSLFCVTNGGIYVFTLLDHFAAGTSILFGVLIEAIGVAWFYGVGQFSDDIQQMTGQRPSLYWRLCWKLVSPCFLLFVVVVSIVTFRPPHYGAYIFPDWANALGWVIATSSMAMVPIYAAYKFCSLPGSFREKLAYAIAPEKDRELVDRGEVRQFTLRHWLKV

SMILES	Human dose [1]	Ki [2, 4] [µM]	Bias factor β Gαi/o,12/13/Gαq [3]	Bias factor β Gαi/o,12/13/β-arrestin 2 [3]	Bias factor β β-arrestin 2/Gαq [3]	Ki ([2]; Ki DAT, text value (range DAT and SERT 3.6–4.6)) [µM]
CCc1cc(OC)c(CC(C)N)cc1OC (stereo not shown) [DOET, 4-ethyl-2,5-dimethoxyamphetamine]	2.0 to 6.0 mg	> 8	0.16	0.07	0.08	–
CCCCc1cc(OC)c(CC(C)N)cc1OC (stereo not shown) [DOBU, 4-butyl-2,5-dimethoxyamphetamine]	Uncertain	> 8	-0.61	0.25	-0.86	–
CCCc1cc(OC)c(CC(C)N)cc1OC.Cl (stereo not shown) [DOPR, 4-propyl-2,5-dimethoxyamphetamine hydrochloride]	2.5 to 5.0 mg	> 8	-0.53	0.11	-0.64	–
COc1ccc(OC)c(CC(C)N)c1.Cl (stereo not shown) [2,5-DMA, 2,5-Dimethoxyamphetamine hydrochloride]	80 to 160 mg	> 8	0.37	0.29	0.09	–
COc1cc(CC(C)N)c(OC)cc1C (stereo not shown) [DOM, 4-methyl-2,5-dimethoxyamphetamine]	3.0 to 10.0 mg	> 8	0.04	0.39	-0.35	–
CCCCCc1cc(OC)c(CC(C)N)cc1OC (stereo not shown) [DOAM, 4-amyl-2,5-dimethoxyamphetamine]	> 10 mg	3.64	-0.30	0.43	-0.73	3.6
